In a melting point compilation (Tetko et al.):

Work on `NCC(O)c1cccs1` (configuration not stated) yielded a melting point of 81 to 83 °C.
`COc1ccc(C(C)=O)cc1-c1cccc(C(F)(F)F)c1` showed a melting point of 76 to 78 °C.
`Fc1ccc(-n2c(S)nc3ccccc32)c(F)c1` showed a melting point of 191 to 193 °C.
For `O=C(O)CCSc1ccccc1`, the melting point was 59 to 61 °C.
`CN(C)Cc1cccc(NC(=O)c2nonc2N)c1` gave a melting point of 142 to 144 °C.
`NC(=O)c1ccc2c(c1)CCCC2` showed a melting point of 140 to 142 °C.
`COc1cc(F)cc(F)c1S(=O)(=O)Cl` showed a melting point of 75 to 77 °C.
With `Cc1sc(C(=O)O)cc1[N+](=O)[O-]` the melting point was 97 to 99 °C.
`O=C1Nc2c(cccc2C(F)(F)F)C1=O` showed a melting point of 187 to 189 °C.
Compound `COc1cc(C=O)ccc1SC` has a melting point of 45 to 47 °C.
`O=C(O)C=CC1CCC=CO1` (configuration not stated) gave a melting point of 81 to 83 °C.
With `O=C1CSc2ccc(C(=O)O)cc2N1` the melting point was 251 to 253 °C.
Compound `NNC(=O)c1ccccn1` has a melting point of 95 to 100 °C.
For `O=C(O)Cn1cnc([N+](=O)[O-])n1`, the melting point was 187 to 189 °C.
For `O=C(c1ccc(Br)cc1)N1CCc2ccccc21`, the melting point was 123 to 125 °C.
`N#Cc1cnc(Oc2ccccc2)cn1` showed a melting point of 99 to 101 °C.
Compound `CCN1C(=N)C(C)(C)N(C)C1=O` has a melting point of 88 to 90 °C.
For `Cc1onc(-c2cccc(Br)c2)c1C(=O)O`, the melting point was 169 to 171 °C.
Work on `COc1ccc([N+](=O)[O-])cc1CN` yielded a melting point of 101 to 103 °C.
`CC(Cl)C(=O)Nc1ccc2c(c1)OCO2` (configuration not stated) gave a melting point of 168 to 170 °C.
`CC1(c2ccccc2)NC(=O)N(N)C1=O` (configuration not stated) showed a melting point of 169 to 171 °C.
In the case of `O=C(O)/C=C/C1=C(Cl)c2ccccc2S1(=O)=O`, the melting point is reported as 266 to 268 °C.
Compound `Cc1cc(Cl)c([N+](=O)[O-])cc1N` has a melting point of 118 to 120 °C.
Compound `Nc1ccccc1C(=O)NCCc1ccccc1` has a melting point of 110 to 112 °C.
Compound `CCOC(=O)/C(C#N)=C\Nc1ccc(Cl)cc1` has a melting point of 141 to 143 °C.
With `NCc1ccccc1CN1CCC(O)CC1` the melting point was 83 to 85 °C.
With `O=c1[nH]c(-c2ccc(Cl)cc2)co1` the melting point was 241 to 243 °C.
Compound `CCOC(=O)c1cnc(SC)nc1N` has a melting point of 110 to 120 °C.
`Cc1[nH]c(=O)c(C(=O)O)cc1-c1ccc(O)cc1` showed a melting point of 296 to 298 °C.
`CCOC(=O)/C(C#N)=C\Nc1ccccc1CC` showed a melting point of 124 to 126 °C.
Work on `O=C(Nc1ccccn1)C1CCNCC1` yielded a melting point of 113 to 115 °C.
`O=c1ccc2c(Cl)ccc(Cl)c2[nH]1` showed a melting point of 194 to 196 °C.
With `CC(=O)NNC(=O)C(C)Cl` (configuration not stated) the melting point was 156 to 158 °C.
Work on `OC1CCN(c2cnnc3ccccc23)CC1` yielded a melting point of 84 to 86 °C.
For `COCCc1nnc(S)n1N`, the melting point was 118 to 120 °C.
For `COc1cccc(NCc2nnc3n2CCCCC3)c1`, the melting point was 176 to 180 °C.
Compound `O=C(O)c1nn(Cc2ccccc2)c(=O)c2ccccc12` has a melting point of 199 to 201 °C.
`Clc1nc(-c2cccs2)nc2scc(-c3ccccc3)c12` gave a melting point of 143 to 145 °C.
Work on `CC(O)CS(=O)(=O)c1ccccc1` (configuration not stated) yielded a melting point of 46 to 48 °C.
`COc1ccccc1CNC(=O)C(C)Cl` (configuration not stated) gave a melting point of 113 to 115 °C.
For `CC1(C(=O)O)CCOCC1`, the melting point was 62 to 64 °C.
`Cn1ncc(C(=O)O)c1C1CC1` showed a melting point of 104 to 106 °C.
Compound `O=C1CN(S(=O)(=O)c2cccc([N+](=O)[O-])c2)CCN1` has a melting point of 217 to 219 °C.
Work on `NS(=O)(=O)N1CCCNCC1` yielded a melting point of 118 to 120 °C.
`CCOC(=O)/C(C#N)=C\Nc1ccc2c(c1)OCCCO2` gave a melting point of 124 to 126 °C.
`CCOC(=O)c1c(NC(=O)CCl)sc(C(=O)OC(C)(C)C)c1C` gave a melting point of 168 to 170 °C.
For `CN(C)/C=C(/C#N)C(N)=O`, the melting point was 166 to 168 °C.
`Cc1[nH]c2ccc(Cl)cc2c1C=O` showed a melting point of 248 to 250 °C.
Work on `CCCn1nc(C)c(C(=O)O)c1C` yielded a melting point of 113 to 115 °C.
For `CC(C(=O)O)c1ccc(S(=O)(=O)N(C)C)cc1` (configuration not stated), the melting point was 122 to 124 °C.
Compound `OCCOc1cc(Cl)ccc1Cl` has a melting point of 59 to 61 °C.
In the case of `Cc1ccn2c(N)nnc2c1`, the melting point is reported as 287 to 289 °C.
With `CN(C)C(=O)Sc1ccc2c(c1)CCCC2=O` the melting point was 99 to 101 °C.
`COC(=O)c1ccc2ccn(C)c2c1` gave a melting point of 91 to 93 °C.
For `Cc1ccccc1SCC(=O)O`, the melting point was 108 to 110 °C.
Compound `Cc1cc(Br)ncc1[N+](=O)[O-]` has a melting point of 64 to 66 °C.
`Cc1cc(C=O)cc(C)c1OCc1ccccc1Cl` showed a melting point of 58 to 60 °C.
